In PMC7355937, “Structure-Based Discovery of Dual-Target Hits for Acetylcholinesterase and the α7 Nicotinic Acetylcholine Receptors: In Silico Studies and In Vitro Confirmation” (Molecules, 2020):
“And” between values parts separate entries of the source, which are not always exact repeats. Equal entries are not always repeated. Where two headings read alike, the source gives them in different places.

Tests used:
human α7 nAChR [1] = target: T1, human α7 nAChR (Homo sapiens, UniProt P36544); experiment: α7 nAChR direct activation (agonist test), two-electrode voltage-clamp electrophysiology in Xenopus oocytes; assay type: cell-based; conditions: for activation at 200 µM: read-out: α7 nAChR %Activation
T1 construct: expressed in transfected cells; host or cells: Xenopus laevis oocytes (cRNA injection)
Experimental: (§1) Compounds were tested for direct activation of the α7 nAChR in a 0.2–200 µM concentration range. Compounds displaying less than 1% direct activation were further evaluated at 100 µM for their ability to alter currents evoked by 30 µM ACh.
(§2) Xenopus laevis oocytes were obtained as described previously, briefly, ovary lobes were removed by surgical incision, sliced into small pieces and defolliculated by collagenase treatment. […] Stage V and VI oocytes were injected with a total of ~25 ng of cRNA encoding human α7 nAChR with RIC3 (in 5:1 ratio), a protein enhancing the expression of the receptor. Injected oocytes were incubated for 3–5 days at 18 °C in a saline solution (96 mM NaCl, 2 mM KCl, 1 mM MgCl2, 1.8 mM CaCl2, 5 mM HEPES (hemisodium, pH 7.4)) supplemented with 2.5 mM sodium pyruvate, 0.5 mM theophylline, and 50 µM gentamycin.
(§3) Electrophysiological recordings from Xenopus laevis oocytes were performed using the two-electrode voltage-clamp technique as described previously. Briefly, oocytes were placed in a custom-built recording chamber and continuously perfused with a saline solution. The saline solution contained 96 mM NaCl, 2 mM KCl, 1 mM MgCl2, 1.8 mM CaCl2, 5 mM HEPES (hemisodium, pH 7.4). Pipettes were backfilled with 3 M KCl and open-pipette resistances ranged from 0.3 to 1.5 MΩ when submerged in the saline solution. Oocytes were voltage clamped at a holding potential of −60 mV using an Axon Geneclamp 500B amplifier (Molecular Devices, LLC, San Jose, CA, USA). Rapid solution exchange in the oocyte vicinity (order of a few seconds) was ensured by application through a 1.5 mm diameter capillary tube placed approximately 2 mm from the oocyte as described previously. The solution flow rate through the capillary was 2.0 mL/min. […] Thereafter, test compounds in increasing concentration were applied (25 s), the maximal tested concentration was 200 µM. A wash period of at least 2 min was kept between each application. […] In these experiments, 10 and 100 µM concentration of a test compound was co-applied with 30 µM ACh. Peak current amplitudes were normalized with respect to the amplitude of current elicited by 3 mM or 30 µM ACh for the agonist and antagonist test, respectively. All experiments were conducted at least in triplicate.
(§4) Data analysis was performed as reported previously. […] During analysis, traces were baseline subtracted and responses to individual applications quantified as peak-current amplitudes. Statistical calculations were performed using GraphPad Prism 7 (GraphPad Software, GraphPad, San Diego, CA, USA). Activation of the α7 nAChR was calculated as a percentage of Emax response to ACh. For evaluation of the inhibitory activity, the percentage of remaining peak-current amplitudes relative to that of the AChcontrol (EC20) application was calculated. AChE inhibition data were analyzed using GraphPad Prism 7. Absorption readings from the AChE inhibition assay were plotted versus time and linear regression was performed. […] Data were fitted with the slope set to 1 and remaining current amplitude at infinitely high compound concentrations set to 0.

human recombinant AChE = target: T2, human recombinant AChE (Homo sapiens, UniProt P22303); experiment: biochemical; conditions: for inhibition at 200 µM: compound soluble in MeOH; for AChE %Inhibition of supernatant (MeOH): poorly soluble compound, methanol supernatant tested, nominal 200 µM
T2 construct: purchased Sigma-Aldrich Co. LLC C1682
Experimental: For five poorly soluble compounds, the methanol supernatants were tested. Ellman’s colorimetric analysis is based on the breakdown of acetylthiocholine (ATCI) by AChE to thiocholine and acetic acid. Ellman’s reagent in turn reacts with the thiol group of thiocholine resulting in a yellow color indicating the extent of enzymatic activity. […] In vitro AChE inhibitory activity was studied using the colorimetric method of Ellman using human recombinant AChE enzyme. To a 96-well microplate, test solutions were applied along with 1 mg/mL bovine serum albumin, 0.5 mM 5,5-dithiobis-(2-nitro-benzoic acid), and 0.5 mM acetylthiocholine iodide. […] Experiments were conducted in triplicate.
as §4

human α7 nAChR [2] = target: T1, human α7 nAChR; experiment: α7 nAChR inhibition of ACh-evoked currents (antagonist test), two-electrode voltage-clamp electrophysiology in Xenopus oocytes; assay type: cell-based; conditions: -60 mV
Experimental: as §1, §2, §3, §4

α7 nAChR = conditions: cited from earlier work
[3] = 200 µM, normalized to 3 mM ACh response, -60 mV
[4] = five to eight concentrations, read-out: AChE IC50
[5] = 100 µM compound co-applied with 30 µM ACh, read-out: α7 nAChR %Inhibition

T1 sequence (P36544 23-502): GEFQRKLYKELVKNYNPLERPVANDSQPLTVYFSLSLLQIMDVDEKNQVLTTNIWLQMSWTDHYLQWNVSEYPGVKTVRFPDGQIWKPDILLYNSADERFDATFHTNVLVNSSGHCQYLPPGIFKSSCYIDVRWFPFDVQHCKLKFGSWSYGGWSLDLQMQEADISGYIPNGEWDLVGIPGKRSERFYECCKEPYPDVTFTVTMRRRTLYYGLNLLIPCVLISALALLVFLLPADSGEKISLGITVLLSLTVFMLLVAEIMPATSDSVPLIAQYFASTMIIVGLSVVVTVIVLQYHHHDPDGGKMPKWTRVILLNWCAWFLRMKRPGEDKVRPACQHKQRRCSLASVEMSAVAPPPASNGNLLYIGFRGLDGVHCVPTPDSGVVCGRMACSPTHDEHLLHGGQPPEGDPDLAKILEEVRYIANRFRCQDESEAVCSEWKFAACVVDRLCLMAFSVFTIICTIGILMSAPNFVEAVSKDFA
T2 sequence (P22303 32-614): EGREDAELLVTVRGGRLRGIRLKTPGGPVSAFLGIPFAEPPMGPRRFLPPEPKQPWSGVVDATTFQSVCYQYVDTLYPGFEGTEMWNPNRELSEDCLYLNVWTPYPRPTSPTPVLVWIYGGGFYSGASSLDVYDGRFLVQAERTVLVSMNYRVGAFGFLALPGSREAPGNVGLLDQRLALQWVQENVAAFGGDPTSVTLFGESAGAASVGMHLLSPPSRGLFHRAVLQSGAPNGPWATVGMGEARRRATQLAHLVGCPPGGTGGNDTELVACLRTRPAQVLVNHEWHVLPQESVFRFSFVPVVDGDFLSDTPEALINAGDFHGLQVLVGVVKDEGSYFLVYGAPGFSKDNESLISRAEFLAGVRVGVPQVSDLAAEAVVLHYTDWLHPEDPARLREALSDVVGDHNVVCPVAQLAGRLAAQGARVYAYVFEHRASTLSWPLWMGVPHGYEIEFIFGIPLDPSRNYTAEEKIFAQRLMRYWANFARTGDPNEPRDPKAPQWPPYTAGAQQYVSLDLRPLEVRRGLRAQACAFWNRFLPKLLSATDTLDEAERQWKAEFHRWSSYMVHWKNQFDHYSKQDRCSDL

Compound	activation at 200 µM (human α7 nAChR [1]; [3]) [%]	inhibition at 200 µM (human recombinant AChE) [%]	IC50 (human recombinant AChE; [4]) [µM]	inhibition at 100 µM (human α7 nAChR [2]; [5]) [%]	further results
CN(C)Cc1ccc(-c2ccc(N(C)C)nc2)nc1 [Compound 6]	0.4	76.1	58.5	47.2	–
c1cc(-c2ccc(-c3ccc(CN4CCCC4)cn3)cc2)n[nH]1 [Compound 8]	0.3	–	–	59	AChE %Inhibition of supernatant (MeOH) (human recombinant AChE): 100%
O[C@@H]1c2ccc(-c3cccnc3)cc2OC[C@H]1N1CCCC1 [Compound 9]	1	–	–	66.7	AChE %Inhibition of supernatant (MeOH) (human recombinant AChE): 45.9 ± 3.8%
O=C(Nc1cccc(CN2CCCCC2)c1)c1ccccc1F [Compound 10]	0.3	90.8	11.3	85	–
O=C(Nc1ccc(CN2CCCCC2)cc1)c1ccc(Cl)cc1 [Compound 11]	0.7	–	–	73.3	AChE %Inhibition of supernatant (MeOH) (human recombinant AChE): 100%
O=c1[nH]c2ccccc2c(=O)n1-c1ccc(CN2CCCC2)cc1 [Compound 12]	0.3	–	–	81.7	AChE %Inhibition of supernatant (MeOH) (human recombinant AChE): 63.7 ± 4.4%
Cc1cccc(NC(=O)c2ccc(CN3CCCCCC3)cc2)c1C [Compound 13]	0.7	82.5	30.2	68	–
CC(=O)c1cccc(NC(=O)c2ccc(CN3CCCCC3)cc2)c1 [Compound 14]	0.3	100	1.1	60	–
O=C(Nc1cccc(CN2CCCC2)c1)C1=Cc2cc(Cl)ccc2OC1 [Compound 16]	1	–	–	90.7	AChE %Inhibition of supernatant (MeOH) (human recombinant AChE): 100%
CN(C(=O)Cc1ccsc1)[C@H]1CCC[C@H](N2CCCC2)[C@H]1O [Compound 17]	–	22.9	–	–	–
CC(=O)c1cccc(NC(=O)c2ccc(CN3CCCCCC3)cc2)c1 [Compound 18]	0.7	91.6	17.9	68.7	–
C[C@H]1CCCN(Cc2ccc(NC(=O)CCc3ccc(C#N)cc3)cc2)C1 [Compound 20]	0.3	86	33.5	94.3	–
Nc1nc(-c2ccsc2)cc(N(Cc2ccccn2)Cc2ccccn2)n1 [Compound 44, N4,N4-bis[(pyridin-2-yl)methyl]-6-(thiophen-3-yl)pyrimidine-2,4-diamine]	–	–	–	–	α7-pEC50 (α7 nAChR): 6.3
Cc1nnc2ncc(-c3ccc(C(C)N(C)C)cc3)cn12 (centres unmarked) [Ýmir-2 (7), N,N-dimethyl-1-(4-(3-methyl-[1,2,4]triazolo[4,3-a]pyrimidin-6-yl)phenyl)ethan-1-amine]	–	98.4	2.58	–	α7 nAChR %Activation (human α7 nAChR [1]; [3]): 7.0% and 7.0 ± 0.9%; activation at 200 µM (human α7 nAChR [1]): 7 ± 0.9%
Cc1ccc2cc(NC(=O)NCCN3CCCC3)ccc2n1 [Ýmir-10 (15)]	–	66.6	115	–	α7 nAChR %Activation (human α7 nAChR [1]; [3]): 2.3% and 2.3 ± 0.4%; activation at 200 µM (human α7 nAChR [1]): 2.3 ± 0.4%
Cc1cc(F)ccc1S(=O)(=O)NCc1ccc(CN2CCCC2)cc1 [Ýmir-14 (19)]	0.7	100	1.32	96	–
O=C(Nc1nc(CN2CCCCC2)cs1)c1cc(O)nc2ccccc12 [Ýmir-16 (21)]	0.3	87.7	7.76	–	IC50 (human recombinant AChE; read-out: AChE pIC50 ± SEM (converted)): 7.94 µM; α7 nAChR %Inhibition (human α7 nAChR [2]; 100 µM compound co-applied with 30 µM ACh): 97.3 ± 1%; inhibition at 100 µM (human α7 nAChR [2]; read-out: α7 nAChR %Inhibition, 100 µM compound co-applied with 30 µM ACh): 97%
